Experimental data reported in patent US20040102606A1, “Histone H2A -derived peptides useful in gene delivery” (priority 2003, published 2004).

Assays:
[1] = tested on: COS7 cells; settings: polymers in equimolar ratios to their representation in histone H2A; cited from earlier work
[2] = tested on: COS-7 cells; test: Transfection assay (β-galactosidase reporter plasmid pCMVβ complexed with H2A-derived peptide); type: cell-based, African green monkey; settings: for transfection activity (β-galactosidase production): peptide at equimolar ratio to peak conditions of peptide 1 (36-mer), also 2× and ½× molar, FIG. 1; for transfection activity (DNA delivery) at the 17-mer's own optimal concentration: much higher molar ratio than 36-mer
Description: The transfection assay is based on an in vitro assay previously described by J. H. Felgner et al. (Feigner et al., Proc. Natl. Acad. Sci., USA, 84:7413-7417, […]) with the following modifications: COS-7 (African green monkey SV40-transformed kidney cells, American Type Culture Collection, Rockville, Md.) were maintained in Dulbecco's modified eagle's medium (Biowhittaker, Walkersville, Md.) supplemented with 10% heat inactivated fetal bovine serum (Gemini Bio-products Inc., Calabras, Calif.), […] glutamine (Gemini Bio-products Inc., Calabras, Calif.), and 100U Penicillin-100 μg Streptomycin (Gemini Bio-products Inc., Calabras, Calif.). Other cells useful for transfection are 3T3, CHO-K1, HEPG2 and the like cell lines. The cells were harvested with 0.05% Trypsin-0.53 mM EDTA4Na (Life Technologies, Gaithersburg, Md.), pelleted, resuspended in their usual culture medium, diluted in 0.85% NaCl (Sigma, St. Louis, Mo.), and counted in a Coulter Z1® apparatus (Coulter Corporation, Miami, Fla.). COS-7 cells were plated in 96-well flat bottom tissue culture treated polystyrene plates (Corning Inc., Corning, N.Y.) at a density of […] cells per well and grown overnight in a humidified incubator at 37° C. in the presence of 4% CO2. Culture medium was aspirated from the overnight cultures of COS-7 cells, and the cells were overlaid with 75 μl/well of the binary DNA-histone H2A-derived peptide complex, or the corresponding controls. Four hours after transfection, 37.5 μl of Opti-MEM®1, a Tris-Acetate-based (Life Technologies, Gaithersburg, Md.) containing 30% heat inactivated fetal bovine serum (Gemini Bio-products Inc., Celebres, Calif.) was added to each well. Twenty-four hours post-transfection […] of Opti-MEM®1 containing 10% heat inactivated fetal bovine serum (Gemini Bio-products Inc., Celebres, Calif.) was added to each well Forty-eight hours post-transfection, all of the medium in each well was removed. Fifty μl of lysis buffer (0.1% Triton X-100, […] Tris pH 8.0) was added to each well. The plates were then frozen at −70° C. and thawed once. Fifty μl of phosphate-buffered saline (PBS) pH 7.4 was added to each well except for the last column The last column was reserved for a β-galactosidase standard curve. […] In the presence of β-galactosidase, D-galactose is released from CPRG, yielding chlorophenol red; the red reaction product was used to quantitate the amount of β-galactosidase produced. […] The plates were read in a Thermomax plate reader (Molecular Devices Incorporated, Sunnyvale, Calif.) at 575 nm. The optical density values obtained in test wells were then compared to those in the column containing the β-galactosidase standard and the result was expressed as the quantity of β-galactosidase produced per well. […]

[3] = Circular dichroism; type: physicochemical; settings: 70 μM in 120 mM Tris acetate pH 8; 200-260 nm
Description: Circular dichroism experiments were performed using a Circular Dichroism Spectrometer (model 62DS) at wavelengths ranging from 200-260 nm In all cases, three readings were taken of a 300 μl sample of 70 μM histone H2A or 70 μM histone H2A-derived peptide in 120 mM Tris acetate pH 8. The average reading for every wavelength tested is plotted as a function of degrees of ellipticity.
Circular dichroism of peptide was performed on four samples: the full length histone H2A molecule, peptide 1 (36-mer), peptide P1 (17-mer) and peptide 12.

[4] = tested on: COS-7 cells; test: X-gal staining of transfected cells; type: cell-based, African green monkey
Description: The difference between one of the effective peptides (amino acids 1-36) and the peptide composed of the first 25 amino acids is the inclusion of an α-helical motif located between amino acids 27-35.

Row | Molecule | transfection (β-galactosidase reporter plasmid) [1] | transfection activity (β-galactosidase production) [2] | also measured
1 | NCCCNCCCCNCCCN [spermine] | ineffective |  | 
2 | NCCCCNCCCN [spermidine] | ineffective |  | 
3 | KTRSSRAGLQFPVGRVHRIIRK [Peptide 5R] |  | significant activity | 
4 | P1: 17-mer that represents amino acids 18-34 of the histone H2A molecule (RSSRAGLQFPVGRVHRL; UniProt P0C0S8 18-34, looked up, fragment) [Peptide P1] |  | only background activity | circular dichroism, α-helical structure (minima at 208 and 222 nm) [3]: some degree of minima at around 208; transfection activity (DNA delivery) at the 17-mer's own optimal concentration ([2]; FIG. 2): effective in DNA transfection and delivery; transfection activity (DNA delivery) at the 17-mer's own optimal concentration ([2]; FIG. 2, listed as 17-mer): active in DNA delivery; COS-7 cells transfected (X-gal staining) [4]: less than 1%
